The results in this text go back to patent US7659277B2, “Ubiquitin ligase inhibitors and methods related thereto” (Proteologies, Ltd., priority 2003, dated 2010).

Where two headings read alike, the source gives them in different places.

In assay [1] the target is T1, POSH (Homo sapiens, UniProt Q7Z6J0).
T1 construct: GST-POSH lot NB81/p.118 3.6 mg/ml; fused on or other part: GST tag, used for detection with anti-GST XL665
T1 sequence (Q7Z6J0 1-269 limits assumed): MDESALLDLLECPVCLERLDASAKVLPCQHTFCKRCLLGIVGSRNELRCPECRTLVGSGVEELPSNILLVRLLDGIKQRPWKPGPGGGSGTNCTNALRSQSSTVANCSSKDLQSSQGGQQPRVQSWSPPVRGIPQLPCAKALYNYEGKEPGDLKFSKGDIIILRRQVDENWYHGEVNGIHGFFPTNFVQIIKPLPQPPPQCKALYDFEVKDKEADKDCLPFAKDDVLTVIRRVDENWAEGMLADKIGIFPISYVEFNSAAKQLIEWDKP
The assay is described as follows: Selectivity (% A in 1 μM), ubiquitin ligase activity of POSH. It is filed as biochemical. To be noted: read-out: Selectivity (% A* in 1 μM) POSH. The method, then:
Experimental Protocols: 1. HTS Screening Assay Procedure • Microplates 10109D to 10114D compounds at 1 mM. • (Controls in column 1). • All compounds were perchase from ChemBridge corporation: ChemBridge corporation 16981 Via Tazon, Suite G San Diego, Calif. 92127 a. Microplates Labeling • Put labels to 6 PS U-bottom clear microplate. • Put labels to 18 black microplates (triplicats). b. Microplates Preparation • Put 100 μl GST-POSH at 33 nM in wells of the clear PS U-bottom microplates (exept wells A1-D1). • Negative control: place 100 μl dH2O in wells A1-D1. • (Positive control: place 100 μl GST-POSH at 33 nM in wells E1-H1). • Put 8 μl enzymes solution ×4 to black microplates (column 1 to 11). c. Incubation of E3 with Compounds • Transfer 5 μl of compounds (at 1 mM) to the microplates containing 100 μl GST-POSH. • Add 5 μl of DMSO to controls column 1. • Incubation 30 minutes at RT. d. […] 2. […] Microplates Labeling • Put labels to 4 clear PP clear microplate (18.2 μM, 9.1 uM, 1.82 uM, 910 nM,). • Put labels to 5 clear PS U-bottom clear microplate 4.44 μM, 909, 444, 91 and 44 nM) • Put labels to 15 black microplates (triplicates). f. Original Microplate Dilutions • Put DMSO 40 μl to (18.2 μM, 1.82 uM plates) and 20 ul to (9.1 uM, 910 nM plates. • Mix by pipetation the original microplate (3× up and down 45 μl). • Transfer 10 μl of compounds from the original microplate (at 91 μM) to the next microplate (=18.2 μM) on splitting apparatus. • Mix by pipetation the 18.2 uM microplate (3× up and down 45 μl). • Transfer 20 μl of compounds from the 18.2 uM microplate to the next microplate (=9.1 μM) on splitting apparatus. • Mix by pipetation the 9.1 uM microplate (3× up and down 45 μl). • Transfer 10 μl of compounds from the 9.1 uM microplate to the next microplate (=1.82 μM) on splitting apparatus. • Mix by pipetation the 1.82 uM microplate (3× up and down 45 μl). • Transfer 20 μl of compounds from the 1.82 uM microplate to the next microplate (=910 nM) on splitting apparatus • Mix by pipetation. g. Microplates Preparation • Put 123 μl GST-POSH at 33 nM in wells of the 5 clear PS U-bottom clear microplates. • Positive control: place 123 μl GST-POSH at 33 nM in well A12-h12 13 μl DMSO. • Negative control: place 123 μl dH2O in well B1 and 13 μl DMSO. • Put 8 μl enzymes solution ×4 to 15 black microplates. • Controls: put 8 μl enzymes solution ×4 to wells A1 to F1. h. Incubation of POSH with Compounds • Take 7 μl of compounds at original plate (91 μM) and put into the 4.44 μM labeled microplate containing 123 μl GST-POSH, on splitting apparatus. • Mix by pipetation (3× up and down 115 μl), note time. • Take 7 μl of compounds at 18.2 μM and put into the 910 nM labeled microplate containing 123 μl GST-POSH, on splitting apparatus. • Mix by pipetation (3× up and down 115 μl), note time. • Take 7 μl of compounds at 9.1 μM and put into the 444 nM labeled microplate containing 123 μl GST-POSH, on splitting apparatus. • Mix by pipetation (3× up and down 115 μl), note time. • Take 7 μl of compounds at […] and put into the 91 nM labeled microplate containing 123 μl GST-POSH, on splitting apparatus. • Mix by pipetation (3× up and down 115 μl), note time. • Take 7 μl of compounds at 91.0 nM and put into the 44 nM labeled microplate containing 123 μl GST-POSH, on splitting apparatus. • Mix by pipetation (3× up and down 115 μl), note time. • Incubation 30 minutes at RT. i.

The target of assay [2] is Hmdm2 (Homo sapiens, UniProt Q00987). The assay is described as follows: Selectivity (% A in 1 μM), ubiquitin ligase activity of Hmdm2. It is filed as biochemical. Conditions: read-out: Selectivity (% A* in 1 μM) Hmdm2.
The mark [3] stands for this setting: % activity at 1 μM compound, control is related to 100% activity, HTS protocol.

Sequence of Hmdm2 (Q00987 whole entry): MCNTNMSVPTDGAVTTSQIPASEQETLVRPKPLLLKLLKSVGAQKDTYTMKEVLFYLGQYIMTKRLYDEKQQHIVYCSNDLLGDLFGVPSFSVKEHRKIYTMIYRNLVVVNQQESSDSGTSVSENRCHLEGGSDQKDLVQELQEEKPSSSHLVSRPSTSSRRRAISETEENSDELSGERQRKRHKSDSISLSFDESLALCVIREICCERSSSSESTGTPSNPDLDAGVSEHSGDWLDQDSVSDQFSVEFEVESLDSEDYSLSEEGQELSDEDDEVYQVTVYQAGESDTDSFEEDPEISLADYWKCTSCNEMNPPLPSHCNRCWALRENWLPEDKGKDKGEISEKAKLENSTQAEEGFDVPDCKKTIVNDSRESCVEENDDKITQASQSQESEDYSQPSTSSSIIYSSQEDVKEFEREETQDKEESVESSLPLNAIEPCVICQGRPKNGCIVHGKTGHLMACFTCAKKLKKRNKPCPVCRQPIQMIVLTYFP

In the case of `Oc1ccc(/N=C/c2cccs2)cc1-c1nc2ccccc2s1` [Compound 71], the remaining activity at 1 µM was determined as 9% in assay [1] (setting [3]) and 78% in assay [2] (setting [3]).
The corresponding values for `O=C1\C(=C/C=C/C=C/Nc2ccccc2)SC(=S)N1c1ccccc1` [Compound 24] are 7% and 69%.
With `COc1ccc(/C=C2\C(=O)NC(=S)N(c3ccccc3)C2=O)cc1` [Compound 11], the remaining activity at 1 µM was 21% in assay [1] (setting [3]) and 95% in assay [2] (setting [3]).
`S=C(c1ccc(-c2cc(Cl)ccc2Cl)o1)N1CCCCC1` [Compound 35]: the remaining activity at 1 µM in assay [1] was 44%; in assay [2], 101%.
As for `COc1ccc(CC(C)NCc2ccccc2Cl)cc1` (centres unmarked) [Compound 107], the figures for the remaining activity at 1 µM in assay [1] (setting [3]) and in assay [2] (setting [3]) were 68% and 113%, respectively.
For `Oc1c(Br)cc(Br)cc1/C=N/c1ccc(Br)cn1` [Compound 61], in that order: 35% and 131%.
The corresponding values for `O=C1NC(=O)N(c2ccc(Br)cc2)C(=O)/C1=C/c1ccc(O)cc1` [Compound 5] are 13% and 61%.
For `CC(C)(C)c1ccc(O)c(/N=C/C=C/c2cccc([N+](=O)[O-])c2)c1` [Compound 59], the values for the remaining activity at 1 µM in assay [1] and in assay [2] were 26% and 112%, respectively.
The corresponding values for `C=CCN1C(=O)NC(=O)/C(=C\c2ccccc2)C1=O` [Compound 2] are 50% and 108%.
With `O=C(C(Cl)Cl)N1CCN(c2ccc([N+](=O)[O-])cc2)CC1` [Compound 79], the values for the remaining activity at 1 µM in assay [1] (setting [3]) and in assay [2] (setting [3]) were 120% and 94%, respectively.
`Oc1c(Br)cc(Cl)cc1/C=N/c1ccccc1Br` [Compound 58]: the remaining activity at 1 µM in assay [1] (setting [3]) worked out at 40%; in assay [2] (setting [3]), 102%.
Consider `O=C1N=C(c2ccccc2)S/C1=C/c1ccc(-c2cccc([N+](=O)[O-])c2)o1` [Compound 36], for which the remaining activity at 1 µM worked out at 6% in assay [1] (setting [3]) and 71% in assay [2] (setting [3]).
For `O=C1CC(NNc2ccccc2)C(=O)N1c1cccc(Cl)c1` (centres unmarked) [Compound 22], in that order: 26% and 102%.
The corresponding values for `Cc1cc(C)c(O)c(/N=C/c2c(O)ccc3ccccc23)c1` [Compound 65] are 8% and 98%.
As for `COc1cc(N/C=C2/C(=O)NC(=S)N(c3ccc(F)cc3)C2=O)cc(OC)c1` [Compound 17], the results for the remaining activity at 1 µM in assay [1] (setting [3]) and in assay [2] (setting [3]) were 71% and 106%, respectively.
On to `COc1ccc(/C=N/c2ccc(Nc3ccccc3)cc2)c2ccccc12` [Compound 55], for which the remaining activity at 1 µM stood at 40% in assay [1] and 58% in assay [2].
Turning to `O=C1NC(=S)N(c2ccccc2)C(=O)/C1=C\c1c(Cl)cccc1Cl` [Compound 6], the results for the remaining activity at 1 µM in assay [1] (setting [3]) and in assay [2] (setting [3]) were 14% and 129%, respectively.
On to `C=CCN1C(=O)/C(=C/c2c3ccccc3cc3ccccc23)SC1=S` [Compound 109], for which the remaining activity at 1 µM was determined as 67% in assay [1] and 106% in assay [2].
For the compound `CCCCCCOc1ccc(C=C2C(=O)NC(=S)NC2=O)cc1` [Compound 15], the remaining activity at 1 µM in assay [1] stood at 14%; in assay [2], 90%.
For the compound `CC(C)Oc1ccc(/C=C2/SC(=S)NC2=O)cc1` [Compound 26], the remaining activity at 1 µM in assay [1] (setting [3]) was determined as 69%; in assay [2] (setting [3]), 98%.
For the compound `COc1ccc(N2C(=O)NC(=O)/C(=C\c3ccc(Cl)cc3)C2=O)cc1` [Compound 7], the results for the remaining activity at 1 µM in assay [1] (setting [3]) and in assay [2] (setting [3]) were 108% and 101%, respectively.
`O=C1N=C(c2ccccc2)S/C1=C/c1ccc2ccccc2c1` [Compound 41]: the remaining activity at 1 µM worked out at 17% in assay [1] (setting [3]) and 106% in assay [2] (setting [3]).
For `COc1cc(N/C=C2/C(=O)NC(=S)N(c3cccc(C)c3)C2=O)cc(OC)c1` [Compound 16], in that order: 51% and 86%.
As for `O=C1/C(=C\c2cccc([N+](=O)[O-])c2)Sc2ccccc21` [Compound 52], the remaining activity at 1 µM in assay [1] (setting [3]) amounted to 80%; in assay [2] (setting [3]), 107%.
For the compound `COC(=O)c1ccc(N2C(=O)c3cccc(N)c3C2=O)cc1` [Compound 21], the remaining activity at 1 µM in assay [1] (setting [3]) was 83%; in assay [2] (setting [3]), 80%.
Turning to `COc1ccc(N2C(=O)NC(=O)/C(=C\C=C\c3ccccc3)C2=O)cc1` [Compound 8], the remaining activity at 1 µM in assay [1] came to 9%; in assay [2], 78%.
With `Cc1ccc(/C=N/c2ccc(C(N)=O)cc2)o1` [Compound 73], the remaining activity at 1 µM in assay [1] (setting [3]) was 16%; in assay [2] (setting [3]) it was 96%.
`COc1ccc(NC(=O)c2cc3cccc(N)c3cc2O)cc1` [Compound 114]: the remaining activity at 1 µM is 31% in assay [1] and 85% in assay [2].
In the case of `Oc1c(Br)cc(Cl)cc1/C=N/c1ccccn1` [Compound 64], the remaining activity at 1 µM worked out at 63% in assay [1] (setting [3]) and 115% in assay [2] (setting [3]).
With `O=c1nc(C(F)(F)F)cc(/C=C/c2ccc(-c3ccc(Br)cc3)o2)[nH]1` [Compound 39], the results for the remaining activity at 1 µM in assay [1] (setting [3]) and in assay [2] (setting [3]) were 29% and 108%, respectively.
Consider `O=C1C(=Cc2ccco2)C(=O)N(c2ccccc2)C(=S)N1c1ccccc1` [Compound 13], for which the remaining activity at 1 µM amounted to 7% in assay [1] (setting [3]) and 11% in assay [2] (setting [3]).
As for `O=[N+]([O-])c1ccc(Cl)cc1CN1CCN(CCO)CC1` [Compound 82], the remaining activity at 1 µM in assay [1] (setting [3]) was determined as 60%; in assay [2] (setting [3]) it was 120%.
On to `Cc1cc([N+](=O)[O-])ccc1/N=C/c1ccc[nH]1` [Compound 70], for which the remaining activity at 1 µM worked out at 151% in assay [1] and 125% in assay [2].
For the compound `N/N=C\c1ccc(-c2cccs2)s1` [Compound 37], the remaining activity at 1 µM in assay [1] (setting [3]) stood at 41%; in assay [2] (setting [3]) it was 107%.
In the case of `COc1ccccc1/C=C1\N=C(c2ccccc2Cl)OC1=O` [Compound 49], the remaining activity at 1 µM in assay [1] (setting [3]) was 77%; in assay [2] (setting [3]), 115%.
Regarding `CCOC(=O)c1c(/N=C/c2cc(Br)ccc2O)sc2c1CCCC2` [Compound 68], the remaining activity at 1 µM is 72% in assay [1] (setting [3]) and 110% in assay [2] (setting [3]).
Turning to `O=C1C(=Cc2ccc(-c3ccc(Br)cc3)o2)C(=O)c2ccccc21` [Compound 38], the values for the remaining activity at 1 µM in assay [1] and in assay [2] were 17% and 111%, respectively.
